From US20130209515A1, “ANTI-INFECTIVE AND IMMUNOMODULATORY COMPOUNDS” (priority 2005, published 2013)
“Also recorded” adds a separate entry of the source.

Tested on: pqsA-LacZ (MvfR-dependent pqs operon transcription)
Assay: pqsA-LacZ expression (β-galactosidase activity)
Type: cell-based, Pseudomonas aeruginosa
Experimental: To assess the effect of this compound on bacteria, we analyzed the production of HAQs in the presence of 2AA using LC/MS. The bacteria were propagated in the presence of 3 mM 2AA, culture media was collected at different time points, and the HHQ, PQS and HQNO production was measured in the supernatant. […] Since 2AA addition to the P. aeruginosa culture inhibits the production of HHQ and PQS, we assessed the transcription from the pqs operon using a pqsA-LacZ fusion.
To further, understand the mechanism of inhibition of the pqs operon by 2AA, we carried out competition assays of PQS and HHQ with 2AA. The expression of pqsA-LacZ in pqsApqsH double mutants was assessed. Bacteria were grown to an OD600 of 1.0 and HHQ and PQS were added either alone or with 2AA. LacZ expression was assayed at different stages of the growth, using standard protocols.
To determine whether HHQ activates MvfR expression, we generated a PA14pqsH/pqsA double mutant that lacks all HAQ production, and assessed pqsA-lacZ activity in the absence and presence of HHQ and PQS.

## CC(=O)c1ccccc1N [2AA, 2′-aminoacetophenone]
PA14, 3 mM 2AA (FIG. 14)
  LacZ expression from pqsA-LacZ fusion: significant reduction
pqsApqsH double mutant, 3 mM 2AA with 1 mg/L HHQ
  pqsA expression (pqsA-LacZ) in response to HHQ: blocks pqsA expression
pqsApqsH double mutant, 3 mM 2AA with 10 μl PQS
  pqsA expression (pqsA-LacZ) in response to PQS: blocks pqsA expression; also recorded: inhibits pqsA expression at later time points
